Source: ChEMBL document CHEMBL1201861, “Genomics of Drug Sensitity in Cancer screening data, Wellcome Trust Sanger Institute”

What was measured:
[1] = system: THP-1; experiment: cells; format: functional, cell-based; conditions: Homo sapiens;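 further: growth inhibition of THP-1 cells, read out via a cell viability assay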
Description: SANGER: Inhibition of human THP-1 cell growth in a cell viability assay.

[2] = system: NCI-H187; experiment: cells; format: functional, cell-based; conditions: Homo sapiens;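 further: growth inhibition of NCI-H187 cells, read out as cell viability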
Description: SANGER: Inhibition of human NCI-H187 cell growth in a cell viability assay.

[3] = system: C-4-II; experiment: SANGER: Inhibition of human C-4-II cell growth in a cell viability assay.; format: functional, cell-based
[4] = system: HCC1143; experiment: cells; format: functional, cell-based; conditions: Homo sapiens;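 further: growth inhibition of human HCC1143 cells, read out with a cell viability assay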
Description: SANGER: Inhibition of human HCC1143 cell growth in a cell viability assay.

[5] = system: ARH-77; experiment: cells; format: functional, cell-based; conditions: Homo sapiens;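 further: growth inhibition of ARH-77 cells, read out by a cell viability assay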
Description: SANGER: Inhibition of human ARH-77 cell growth in a cell viability assay.

[6] = system: BOKU; experiment: cells; format: functional, cell-based; conditions: Homo sapiens;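 further: growth inhibition of the human BOKU cell line, read out by a cell viability assay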
Description: SANGER: Inhibition of human BOKU cell growth in a cell viability assay.

[7] = system: NCI-H522; experiment: cells; format: functional, cell-based, Homo sapiens; conditions: Homo sapiens, NCI-H522;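 further: cell viability assay measuring growth inhibition of human NCI-H522 cells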
Description: SANGER: Inhibition of human NCI-H522 cell growth in a cell viability assay.

[8] = system: EW-7; experiment: SANGER: Inhibition of human EW-7 cell growth in a cell viability assay.; format: functional, cell-based; conditions: Homo sapiens, EW-7
[9] = system: LC-1F; experiment: cells; format: functional, cell-based; conditions: Homo sapiens;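 further: growth inhibition of human LC-1F cells, read out with a cell viability assay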
Description: SANGER: Inhibition of human LC-1F cell growth in a cell viability assay.

[10] = system: NCI-H2009; experiment: cells; format: functional, cell-based, Homo sapiens; conditions: Homo sapiens, NCI-H2009;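 further: cell viability assay measuring inhibition of NCI-H2009 cell growth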
Description: SANGER: Inhibition of human NCI-H2009 cell growth in a cell viability assay.

[11] = system: SCC-3; experiment: cells; format: functional, cell-based; conditions: Homo sapiens;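 further: cell viability assay measuring inhibition of SCC-3 cell growth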
Description: SANGER: Inhibition of human SCC-3 cell growth in a cell viability assay.

[12] = system: OPM-2; experiment: cells; format: functional, cell-based; conditions: Homo sapiens;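 further: growth of OPM-2 cells measured with a viability assay, IC50 for suppression of proliferation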
Description: SANGER: Inhibition of human OPM-2 cell growth in a cell viability assay.

[13] = system: RT-4; experiment: SANGER: Inhibition of human RT4 cell growth in a cell viability assay.; format: functional, cell-based; conditions: Homo sapiens, RT-4
[14] = system: COLO 205; experiment: cells; format: functional, cell-based; conditions: Homo sapiens
Description: SANGER: Inhibition of human COLO-205 cell growth in a cell viability assay.

[15] = system: P31-FUJ; experiment: cells; format: functional, cell-based; conditions: Homo sapiens;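 further: growth inhibition of P31-FUJ cells, read out with a viability assay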
Description: SANGER: Inhibition of human P31-FUJ cell growth in a cell viability assay.

[16] = system: NCI-H1734; experiment: cells; format: functional, cell-based; conditions: Homo sapiens;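 further: growth inhibition of human NCI-H1734 cells, read out with a cell viability assay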
Description: SANGER: Inhibition of human NCI-H1734 cell growth in a cell viability assay.

[17] = system: NCI-H719; experiment: cells; format: functional, cell-based; conditions: Homo sapiens;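 further: growth inhibition of the cultured cell line, read out with a viability assay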
Description: SANGER: Inhibition of human NCI-H719 cell growth in a cell viability assay.

[18] = system: NCI-H1963; experiment: cells; format: functional, cell-based; conditions: Homo sapiens;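 further: cell growth inhibition of the human line, determined with a cell viability assay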
Description: SANGER: Inhibition of human NCI-H1963 cell growth in a cell viability assay.

[19] = system: NCI-H1573; experiment: cells; format: functional, cell-based; conditions: Homo sapiens;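 further: growth inhibition of NCI-H1573 cells, read out with a cell viability assay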
Description: SANGER: Inhibition of human NCI-H1573 cell growth in a cell viability assay.

[20] = system: NCI-H716; experiment: cells; format: functional, cell-based; conditions: Homo sapiens;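 further: growth inhibition of human NCI-H716 cells, measured by a cell viability assay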
Description: SANGER: Inhibition of human NCI-H716 cell growth in a cell viability assay.

[21] = system: NCI-H2196; experiment: cells; format: functional, cell-based; conditions: Homo sapiens;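 further: cell viability assay used as the readout of growth inhibition in NCI-H2196 cells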
Description: SANGER: Inhibition of human NCI-H2196 cell growth in a cell viability assay.

[22] = system: NCI-H2227; experiment: cells; format: functional, cell-based; conditions: Homo sapiens;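 further: growth inhibition of the human cell line, read out with a cell viability assay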
Description: SANGER: Inhibition of human NCI-H2227 cell growth in a cell viability assay.

[23] = system: MFE-296; experiment: SANGER: Inhibition of human MFE-296 cell growth in a cell viability assay.; format: functional, cell-based
[24] = system: Calu-1; experiment: SANGER: Inhibition of human Calu-1 cell growth in a cell viability assay.; format: functional, cell-based
[25] = system: TT; experiment: cells; format: functional, cell-based; conditions: Homo sapiens
Description: SANGER: Inhibition of human TT cell growth in a cell viability assay.

[26] = system: EB2; experiment: cells; format: functional, cell-based; conditions: Homo sapiens;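 further: growth inhibition of EB2 cells, read out with a cell viability assay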
Description: SANGER: Inhibition of human EB2 cell growth in a cell viability assay.

[27] = system: MES-SA; experiment: cells; format: functional, cell-based, Homo sapiens; conditions: Homo sapiens, MES-SA;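 further: growth inhibition of human MES-SA cells, read out with a cell viability assay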
Description: SANGER: Inhibition of human MES-SA cell growth in a cell viability assay.

[28] = system: NCCIT; experiment: SANGER: Inhibition of human NCCIT cell growth in a cell viability assay.; format: functional, cell-based
[29] = system: Caov-3 cell line; experiment: cells; format: functional, cell-based; conditions: Homo sapiens;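 further: cell growth inhibition read out by a viability assay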
Description: SANGER: Inhibition of human Caov-3 cell growth in a cell viability assay.

[30] = system: CHP-126; experiment: cells; format: functional, cell-based; conditions: Homo sapiens
Description: SANGER: Inhibition of human CHP-126 cell growth in a cell viability assay.

[31] = system: RPMI 8402; experiment: SANGER: Inhibition of human RPMI-8402 cell growth in a cell viability assay.; format: functional, cell-based
[32] = system: NB1; experiment: cells; format: functional, cell-based; conditions: Homo sapiens;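 further: reduction of NB1 cell proliferation, read out with a viability assay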
Description: SANGER: Inhibition of human NB1 cell growth in a cell viability assay.

[33] = system: NCI-H2171; experiment: cells; format: functional, cell-based; conditions: Homo sapiens;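 further: growth inhibition of human NCI-H2171 cells, read out by a cell viability assay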
Description: SANGER: Inhibition of human NCI-H2171 cell growth in a cell viability assay.

[34] = system: NCI-H322M; experiment: cells; format: functional, cell-based; conditions: Homo sapiens;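 further: cell viability assay measuring inhibition of growth of human NCI-H322M cells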
Description: SANGER: Inhibition of human NCI-H322M cell growth in a cell viability assay.

[35] = system: LC4-1; experiment: cells; format: functional, cell-based; conditions: Homo sapiens;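 further: growth inhibition of LC4-1 cells, read out with a cell viability assay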
Description: SANGER: Inhibition of human LC4-1 cell growth in a cell viability assay.

[36] = system: SR; experiment: cells; format: functional, cell-based; conditions: Homo sapiens
Description: SANGER: Inhibition of human SR cell growth in a cell viability assay.

[37] = system: DV-90; experiment: cells; format: functional, cell-based; conditions: Homo sapiens;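 further: Read-out is a viability assay, with IC50 reflecting the drop in DV-90 cell growth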
Description: SANGER: Inhibition of human DV-90 cell growth in a cell viability assay.

[38] = system: SNU-475; experiment: cells; format: functional, cell-based; conditions: Homo sapiens
Description: SANGER: Inhibition of human SNU-475 cell growth in a cell viability assay.

[39] = system: HSC-4; experiment: cells; format: functional, cell-based, Homo sapiens; conditions: Homo sapiens, HSC-4;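 further: growth inhibition of human HSC-4 cells, read out with a cell viability assay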
Description: SANGER: Inhibition of human HSC-4 cell growth in a cell viability assay.

[40] = system: SNG-M; experiment: cells; format: functional, cell-based; conditions: Homo sapiens
Description: SANGER: Inhibition of human SNG-M cell growth in a cell viability assay.

[41] = system: MONO-MAC-6; experiment: cells; format: functional, cell-based; conditions: Homo sapiens;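 further: cell viability assay measuring growth inhibition of human MONO-MAC-6 cells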
Description: SANGER: Inhibition of human MONO-MAC-6 cell growth in a cell viability assay.

[42] = system: SIG-M5; experiment: cells; format: functional, cell-based; conditions: Homo sapiens;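 further: cell viability assay read-out, measuring how strongly growth of cultured human SIG-M5 cells is inhibited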
Description: SANGER: Inhibition of human SIG-M5 cell growth in a cell viability assay.

[43] = system: NCI-H1618; experiment: cells; format: functional, cell-based; conditions: Homo sapiens;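 further: growth inhibition of human NCI-H1618 cells, measured by a cell viability assay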
Description: SANGER: Inhibition of human NCI-H1618 cell growth in a cell viability assay.

[44] = system: SK-CO-1; experiment: cells; format: functional, cell-based; conditions: Homo sapiens;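 further: growth inhibition of SK-CO-1 cells, determined by a viability readout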
Description: SANGER: Inhibition of human SK-CO-1 cell growth in a cell viability assay.

[45] = system: TUR; experiment: cells; format: functional, cell-based; conditions: Homo sapiens;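 further: growth inhibition of human TUR cells, read out with a cell viability assay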
Description: SANGER: Inhibition of human TUR cell growth in a cell viability assay.

[46] = system: PLC-PRF-5; experiment: cells; format: functional, cell-based; conditions: Homo sapiens;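 further: growth inhibition of human PLC-PRF-5 cells, read out with a viability assay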
Description: SANGER: Inhibition of human PLC-PRF-5 cell growth in a cell viability assay.

[47] = system: MDA-MB-468; experiment: cells; format: functional, cell-based; conditions: Homo sapiens
Description: SANGER: Inhibition of human MDA-MB-468 cell growth in a cell viability assay.

Measured: IC50

Cc1ccc(Nc2nccc(N(C)c3ccc4c(C)n(C)nc4c3)n2)cc1S(N)(=O)=O [PAZOPANIB]
590 nM: [23]
5660 nM: [25]
2320 nM: [20]
3280 nM: [26]
4090 nM: [40]
5970 nM: [19]
> 8000 nM: all other assays above

C=CCc1cccc(/C=N/NC(=O)CN2CCN(Cc3ccccc3)CC2)c1O [PAC-1]
1220 nM: [40]
918 nM: [30]
1770 nM: [31]
> 2560 nM: all other assays above
